Laboratory results reported in patent US7105564B1, “Pharmaceutical composition comprising a dual antagonist against PGD2/TXA2 receptors having a [2.2.1] or [3.1.1] bicyclic skeleton” (Shionogi & Co., Ltd., priority 1999, dated 2006).
Read-outs that look alike come from different tables or passages of the source. Marks after values point to notes of the source that are not given here.

How the values were obtained:
PGD2 receptor [1] = molecular target: T1, PGD2 receptor (Homo sapiens, UniProt Q13258); assay: Binding activity to PGD2 receptor in human platelet membrane fraction ([3H]PGD2); design: The platelets were homogenized using a homogenizer (Ultra-Turrax) followed by centrifugation 3 times at 20,000 rpm; from tissue; host or cells: human platelet membrane fraction from blood of healthy volunteers
T1 sequence (Q13258 1-359): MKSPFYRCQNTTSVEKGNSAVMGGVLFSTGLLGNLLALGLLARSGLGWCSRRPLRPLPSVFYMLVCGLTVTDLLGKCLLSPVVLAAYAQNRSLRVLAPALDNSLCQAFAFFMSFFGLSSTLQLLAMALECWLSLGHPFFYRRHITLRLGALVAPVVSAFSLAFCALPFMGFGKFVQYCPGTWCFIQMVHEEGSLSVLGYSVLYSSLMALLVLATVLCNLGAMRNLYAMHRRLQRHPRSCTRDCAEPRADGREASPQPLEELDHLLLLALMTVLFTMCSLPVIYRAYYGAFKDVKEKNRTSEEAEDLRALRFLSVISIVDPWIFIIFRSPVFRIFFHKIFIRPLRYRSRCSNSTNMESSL
Protocol: Experiment 1 Binding activity to PGD2 Receptor
(§1) (1) Preparation of Human Platelet Membrane Fraction
Blood was collected using a plastic syringe containing 3.8% sodium citrate from the vein of healthy volunteers (adult male and female), then put into a plastic test tube and mixed by slow-reversion. The sample was then centrifuged at 1800 rpm, for 10 min at room temperature, and the supernatant containing PRP (platelet-rich plasma) was collected. The PRP was recentrifuged at 2300 rpm, for 22 min at room temperature to obtain platelets. The platelets were homogenized using a homogenizer (Ultra-Turrax) followed by centrifugation 3 times at 20,000 rpm, 10 min at 4° C.. to obtain a platelet membrane fraction. After protein determination, the membrane fraction was adjusted to 2 mg/ml and preserved in a refrigerator at −80° C.. until using for the binding test.
(2) Binding to PGD2 Receptor
To a binding-reaction solution (50 mM Tris/HCl, pH 7.4, 5 mM MgCl2) (0.2 ml) were added the human platelet membrane fraction (0.1 mg) and 5 nM [^3H]PGD2 (115 Ci/mmol), and the mixture was reacted at 4° C. for 90 min. After the reaction, the mixture was filtered through a glass fiber filter paper and washed several times with cooled physiological saline, then the radioactivity retained on the filter paper was measured. The specific-binding ratio was calculated by subtracting the non-specific binding ratio which is the radioactivity similarly measured in the presence of 10 μM PGD2 from the total binding.

PGD2 receptor [2] = molecular target: T1, PGD2 receptor; assay: Antagonistic activity against PGD2 receptor using human platelet (inhibition of cAMP increase caused by PGD2); assay type: cell-based
Protocol: Experiment 3 Evaluation of Antagonistic Activity Against PGD2 Receptor Using Human Platelet
Peripheral blood was collected from a healthy volunteer using a syringe in which 1/9 volume of a citric acid/dextrose solution was previously added. The sample was subjected to centrifugation at 180 g for 10 min to obtain the supernatant (PRP: platelet rich plasma). The resultant PRP was washed 3 times with a washing buffer and the number of platelets was counted with a micro cell counter. A suspension adjusted to contain the platelets at a final concentration of 5×10^8/ml was warmed at 37° C., then subjected to the pre-treatment with 3-isobutyl-1-methylxanthine (0.5 mM) for 5 min. To the suspension was added a test compound diluted at various concentration, and 10 minutes later, 0.1 μM PGD2 was added to induce the reaction 2 minutes later, hydrochloric acid was added to terminate the reaction. The platelet was destroyed with an ultrasonic homogenizer. After centrifugation, the cAMP in the supernatant was determined by radioimmunoassay. PGD2 receptor antagonism of a drug was evaluated as follows: the inhibition rate regarding cAMP increased by the addition of PGD2 was determined at each concentration, and the concentration of the drug required for 50% inhibition (IC50) was calculated.

TXA2 receptor = molecular target: T2, TXA2 receptor (Homo sapiens, UniProt P21731); assay: Binding activity to TXA2 receptor in human platelet membrane fraction ([3H](+)-S-145 sodium salt)
T2 construct: The human platelet membrane fraction was prepared in accordance with Experiment 1 (1); from tissue; host or cells: human platelet membrane fraction from blood of healthy volunteers
T2 sequence (P21731 1-343): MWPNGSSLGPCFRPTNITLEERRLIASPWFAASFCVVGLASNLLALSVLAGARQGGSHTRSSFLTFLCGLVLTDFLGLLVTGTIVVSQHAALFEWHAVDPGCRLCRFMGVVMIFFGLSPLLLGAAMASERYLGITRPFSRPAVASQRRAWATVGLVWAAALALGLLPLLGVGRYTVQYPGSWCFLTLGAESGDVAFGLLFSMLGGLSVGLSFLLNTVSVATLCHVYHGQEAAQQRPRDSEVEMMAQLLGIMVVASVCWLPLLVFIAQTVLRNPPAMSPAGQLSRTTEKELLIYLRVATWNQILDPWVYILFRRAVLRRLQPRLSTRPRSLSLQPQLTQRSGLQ
Protocol: Experiment 2 Binding activity to TXA2 Receptor
as §1
The human platelet membrane fraction was prepared in accordance with Experiment 1 (1).
(2) Binding to TXA2 Receptor
To a binding-reaction solution (50 mM Tris/HCl, pH 7.4, 10 mM MgCl2) (0.2 ml) were added the human platelet membrane fraction (0.05 mg) and 2 nM Sodium [^3H](+)-(5Z)-7- [3-endo- [(phenylsulfonyl)amino]bicyclo[2.2.1]hept-2-exo-yl]heptenoate (Japanese Patent Publication (Kokoku) No.79060/1993, hereinafter referred to as (+)—S—145 sodium salt) (26.4 Ci/mmol), and the mixture was reacted at room temperature for 90 min. After the reaction, the resultant mixture was filtered through a glass fiber filter paper and washed several times with cooled physiological saline, then the radioactivity retained on the filter paper was measured. The specific-binding ratio was calculated by subtracting the non-specific binding ratio (the radio activity similarly determined in the presence of 10 μM (+)—S—145 sodium salt) from the total binding.

Male Hartley guinea pigs [3] = assay: Antigen-induced bronchial hyperresponsiveness; assay type: in vivo, guinea pig; details: acetylcholine dose for 200% increase in bronchoconstriction
Protocol: Antigen-induced bronchial hyperresponsiveness
Male Hartley guinea pigs were actively sensitized to ovalbumin (OVA) by inhalation of aerosolized solution of 1% ovalbumin twice at a week interval. One week after the second sensitization, the animals were treated with antihistamine, diphenhydramine (10 mg/kg, i.p.), and then challenged with 1% OVA aerosol for 5 min. Twenty four hours later, acetylcholine at doses at 3.13, 6. 25, 12.5, 25, 50 and 100 micro g/kg was sequentially injected into the animals which were anesthetized with pentobarbital (30 mg/kg, i.p.). The bronchoconstriction induced by each dose of acetylcholine was monitored by the modified method of Konzett-Rössler technique, and made a dose-response curve of acetylcholine. Using the dose-response curve, the dose required for 200% increase in bronchoconstriction from baseline (PD200) was calculated in each animal and used as an indication of bronchial responsiveness. Compounds were orally administered 1 hour before antigen challenge. **: P<0.01 vs Vehicle(Dunnett's test), ##: P<0.01 vs Vehicle(Student's t test).

Male Hartley guinea pigs [4] = assay: Antigen-induced bronchoconstriction; assay type: in vivo, guinea pig
Protocol: Antigen-induced bronchoconstriction
Male Hartley guinea pigs were passively sensitized by intravenous injection of anti-OVA serum (antibody titer: 1: 3200), and 48 hours later, the animals were challenged by intravenous injection of OVA (70 micro g/kg). The bronchoconstriction induced by antigen was continuously monitored by means of modified method of Konzett-Rössler technique. The peak value of bronchoconstriction in each animal was used for evaluation of compounds. Compound (I-1b) and compound (B-2) were orally administered 1 hour before, compound (A) 2 hours before antigen challenge. The results are shown as follows. *: P<0.05 vs Vehicle, ##: P<0.01 vs Vehicle. ( ): inhibition %.

[5] = 5 nM [3H]PGD2, 4° C., 90 min, read-out: Binding activity to PGD2 receptor in human platelet membrane fraction IC50
[6] = 0.1 μM PGD2, read-out: Inhibitory activity for the increase of cAMP caused by PGD2 in human platelet IC50
[7] = 2 nM [3H](+)-S-145 sodium salt, room temperature, 90 min, read-out: Binding activity to TXA2 receptor in human platelet membrane fraction IC50
[8] = 1 mg/kg orally 1 hour before antigen challenge
[9] = 10 mg/kg orally 1 hour before antigen challenge
[10] = Comparative Experiment 1, read-out: Experiment 1 Antaginistic activity against PGD2 receptor IC50
[11] = Comparative Experiment 1, read-out: Experiment 3 Antaginistic activity against PGD2 receptor IC50
[12] = Comparative Experiment 1, read-out: Experiment 2 Antaginistic activity against TXA2 receptor IC50

SMILES	IC50 (PGD2 receptor [1]; [5]) [nM]	IC50 (PGD2 receptor [2]; [6]) [nM]	IC50 (TXA2 receptor; [7]) [nM]	other results
CC1(C)C2CC(CC=CCCCC(=O)O)C(NC(=O)c3ccc(Sc4cccs4)s3)C1C2 (stereo not drawn) [II-21]	0.1	24	14	–
O=C(O)CCCC=CCC1C2CCC(C2)C1NC(=O)c1csc2c(Cc3ccsc3)cccc12 (stereo not drawn) [Compound I-169]	0.61	26	32	–
Cc1ccc(Cc2ccc(C(=O)NC3C4CCC(C4)C3CC=CCCCC(=O)O)s2)s1 (stereo not drawn) [Compound I-129]	11	22	52	–
O=C(O)CCCC=CCC1C2CCC(C2)C1NC(=O)c1ccc(Cc2cc3ccccc3o2)s1 (stereo not drawn) [Compound I-136]	23	15	16	–
Cc1cc(S(=O)(=O)c2ccc(C(=O)NC3C(CC=CCCCC(=O)O)CC4CC3C4(C)C)s2)cs1 (stereo not drawn) [II-30]	72	45	4	–
Cc1cccn1S(=O)(=O)c1ccc(C(=O)NC2C(CC=CCCCC(=O)O)CC3CC2C3(C)C)s1 (stereo not drawn) [II-34]	1.5	3.9	4.4	–
CC1(C)C2CC(CC=CCCCC(=O)O)C(NC(=O)c3ccc(S(=O)(=O)n4cccc4)s3)C1C2 (stereo not drawn) [II-15]	2	11	12	–
CC1(C)[C@H]2C[C@H](C/C=C\CCCC(=O)O)[C@@H](NC(=O)c3csc4ccccc34)[C@@H]1C2 [Compound B-1, reference compound]	–	–	–	IC50 (PGD2 receptor [1]; [10]): 8.2 nM; IC50 (PGD2 receptor [2]; [11]): 41 nM; IC50 (TXA2 receptor; [12]): 3800 nM
O=C(O)CCCC=CCC1C2CCC(C2)C1NC(=O)c1ccc(Cc2csc3ccccc23)s1 (stereo not drawn) [Compound I-182]	61	11	28	–
CC1(C)C2CC(CC=CCCCC(=O)O)C(NC(=O)c3ccc(S(=O)(=O)c4cccs4)s3)C1C2 (stereo not drawn) [II-18]	0.96	4	3.6	–

Continued, in another order:

IC50 (PGD2 receptor [1]; [5]) [nM]	IC50 (PGD2 receptor [2]; [6]) [nM]	IC50 (TXA2 receptor; [7]) [nM]	SMILES	other results
0.42	24	15	O=C(O)CCCC=CCC1C2CCC(C2)C1NC(=O)c1ccc(Sc2ccsc2)s1 (stereo not drawn) [Compound I-79]	–
0.1	1.6	39	O=C(O)CCCC=CCC1C2CCC(C2)C1NC(=O)c1ccc(CSc2cccs2)s1 (stereo not drawn) [Compound I-104]	–
7	8.4	72	O=C(O)CCCC=CCC1C2CCC(C2)C1NC(=O)c1ccc(Cc2cccs2)s1 (stereo not drawn) [Compound I-93]	–
0.41	4.6	16	O=C(O)CCCC=CCC1C2CCC(C2)C1NC(=O)c1ccc(Sc2cccs2)s1 (stereo not drawn) [Compound I-59]	–
13	9.3	13	O=C(O)CCCC=CCC1C2CCC(C2)C1NC(=O)c1ccc(SCc2cccs2)s1 (stereo not drawn) [Compound I-106]	–
0.46	29	34	O=C(O)CCCC=CCC1C2CCC(C2)C1NC(=O)c1csc2c(Cc3cccs3)cccc12 (stereo not drawn) [Compound I-168]	–
4.3	1.3	3	O=C(O)CCC/C=C\C[C@H]1[C@@H]2CC[C@@H](C2)[C@@H]1NC(=O)c1ccc(S(=O)(=O)n2cccc2)s1 [Compound I-1b, (5Z)-7-{(1R,2S,3S,4S)-3-[5-(pyrrol-1-ylsulfonyl)-thiophen-2-ylcarbonylamino]-bicyclo[2.2.1]hept-2-yl}-5-heptenoic acid]	Log PD200 (Male Hartley guinea pigs [3]; [8]): 1.25 ± 0.05; Log PD200 (Male Hartley guinea pigs [3]; [9]): 1.52 ± 0.06**; Peak bronchoconstriction (Male Hartley guinea pigs [4]; [8]): 47.4 ± 11.4 cm H2O; Peak bronchoconstriction, inhibition % (Male Hartley guinea pigs [4]; [8]): 31%; Peak bronchoconstriction (Male Hartley guinea pigs [4]; [9]): 28.4 ± 12.9 cm H2O; Peak bronchoconstriction, inhibition % (Male Hartley guinea pigs [4]; [9]): 58%; IC50 (PGD2 receptor [1]; [10]): 4.3 nM; IC50 (PGD2 receptor [2]; [11]): 1.3 nM; IC50 (TXA2 receptor; [12]): 3 nM
4.1	7	6.2	O=C(O)CCCC=CCC1C2CCC(C2)C1NC(=O)c1ccc(S(=O)(=O)c2cccs2)s1 (stereo not drawn) [Compound I-47]	–
7.6	4.7	78	O=C(O)CCCC=CCC1C2CCC(C2)C1NC(=O)c1ccc(Cc2ccsc2)s1 (stereo not drawn) [Compound I-88]	–
1	10	83	O=C(O)CCCC=CCC1C2CCC(C2)C1NC(=O)c1ccn(S(=O)(=O)c2cccs2)c1 (stereo not drawn) [Compound I-94]	–
6.6	39	5.2	O=C(O)CCCC=CCC1C2CCC(C2)C1NC(=O)c1ccc(S(=O)(=O)c2ccsc2)s1 (stereo not drawn) [Compound I-80]	–
32	53	1.8	Cc1ccc(S(=O)(=O)c2ccc(C(=O)NC3C4CCC(C4)C3CC=CCCCC(=O)O)s2)s1 (stereo not drawn) [Compound I-82]	–
